The test system of the assay is Vaccinia virus. In words: Antiviral activity against Vaccinia virus infected in human HEL cells assessed as protection against virus-induced cytopathogenicity. In kind it is functional. Particulars: Orthopoxvirus vaccinia.

In brackets after ≈: the same amount, converted by molar mass. Some results are limits rather than exact numbers.

Consider `O=c1[nH]c(=O)n([C@H]2C[C@H](O)[C@@H](CO)O2)cc1/C=C/Br` [BRIVUDINE], for which the MIC50 was found to be 2 µg/mL (≈ 6 µM).

On to `NC(=O)c1ncn([C@@H]2O[C@H](CO)[C@@H](O)[C@H]2O)n1` [RIBAVIRIN], for which the MIC50 amounted to 150 µg/mL (≈ 614 µM). As for `Nc1nc2c(ncn2COCCO)c(=O)[nH]1` [ACYCLOVIR], the figure is over 250 µg/mL; as for `C=CCNC(=S)Nc1ccc(NS(C)(=O)=O)c(Oc2ccccc2)c1`, over 40 µg/mL. The value for `CCNC(=S)Nc1ccc(NS(C)(=O)=O)c(Oc2ccccc2)c1` was 40 µg/mL (≈ 109 µM); that for `CS(=O)(=O)Nc1ccc(NC(=S)Nc2ccc([N+](=O)[O-])cc2)cc1Oc1ccccc1` was 8 µg/mL (≈ 17.4 µM).

As for `CNC(=S)Nc1ccc(NS(C)(=O)=O)c(Oc2ccccc2)c1`, the MIC50 came to 100 µg/mL (≈ 285 µM). Turning to `CS(=O)(=O)Nc1ccc(NC(=S)NCCc2ccccc2)cc1Oc1ccccc1`, the MIC50 was over 8 µg/mL. With `CS(=O)(=O)Nc1ccc(NC(=S)NCc2ccccc2)cc1Oc1ccccc1`, the MIC50 is over 8 µg/mL. The value for `Nc1nc2c(ncn2COC(CO)CO)c(=O)[nH]1` [GANCICLOVIR] was 100 µg/mL (≈ 392 µM); that for `CS(=O)(=O)Nc1ccc(NC(=S)NC2CCCCC2)cc1Oc1ccccc1` was over 8 µg/mL; that for `CCCNC(=S)Nc1ccc(NS(C)(=O)=O)c(Oc2ccccc2)c1` was over 40 µg/mL.

Consider `CS(=O)(=O)Nc1ccc(NC(=S)NCCc2ccc(Cl)cc2)cc1Oc1ccccc1`, for which the MIC50 was over 100 µg/mL.

Source of the values: ChEMBL document CHEMBL1153581, “Synthesis, antiviral and anticancer activity of some novel thioureas derived from N-(4-nitro-2-phenoxyphenyl)-methanesulfonamide” (Eur J Med Chem, 2009).
